Assays:
RSV A2 = assay: Screening for RSV inhibition using Viral ToxGlo assay in HEp-2 cells; format: cell-based; settings: human respiratory syncytial virus, HEp-2, 72 h
Protocol: Protocol for Screening Antiviral Compounds for RSV Inhibition and Cytotoxicity Using Viral ToxGlo Assay
HEp-2 cells were maintained in Eagle's minimum essential medium (EMEM) with Earle's BSS adjusted to contain 2 mM L-glutamine, 10% fetal bovine serum, 100 U/ml penicillin and 100 μg/ml streptomycin. For the purposes of the screening assay they were grown to 90% confluency, trypsinized and recovered. The trypsin was neutralised with cell culture media and cells were centrifuged at 150×g for 5 minutes before discarding the supernatant and resuspending cell pellet in assay media (EMEM with Earle's BSS adjusted to contain 2 mM L-glutamine, 2% fetal bovine serum and 100 U/ml penicillin and 100 μg/ml streptomycin). The cells were seeded into white clear-bottomed cell culture plates at a density of 1.5×10^4 cells/well in 50 μl and 4×10^3 cells/well in 25 μl for 96 well plates and 384 well plates respectively. For the media/background control column assay media only was added. Cell plates were placed in a humid chamber and incubated overnight at 37° C./5% CO2. After overnight incubation cells were checked for confluency and healthy appearance.
Test articles were made up at 10× test concentration in a maximum DMSO concentration of 10% (final assay concentration maximal 1% DMSO) and added to the cell plates in volumes of 10 μl for 96 well plates and 5 μl for 384 well plates. For cell control and virus control wells the test article solvent only was added. Virus or assay media for cytotoxicity test wells and media/cell control wells was added immediately after test articles at an MOI of 0.5, 40 or 20 μl for 96 and 384 well plates respectively. Virus suspension was prepared by thawing RSV A2 frozen stocks and diluting to the required concentration of plaque forming units in assay media on ice.
(§1) Cell plates were further incubated inside a humid chamber for 72 h p.i at 37° C./5% CO2. After the incubation period cells were observed under the microscope to check for characteristic cytopathic effect in virus control wells and healthy cells in the cell control wells. After plates were adjusted to room temperature 20/40 μl Viral ToxGlo (Promega) was added to each well of the 384/96 well cell plates. Plates were incubated at room temperature, protected from light on a plate rocker for 20 minutes before measuring the luminescence on a spectrophotometer (Biotek Synergy HTX).
RSV inhibition was calculated as percentage of cytopathic effect inhibition relative to the virus control and cytotoxicity as percentage of cell survival relative to cell control wells. This allowed EC50 values to be calculated for each test article where a virus inhibition or cytotoxic dose response was identified. EC50 values ranging between 0.001 µM and 5 μM could thus be determined for compounds 1, 6, 10, 13, 28, 38, 43, 47, 48, 49, 50, 51, 52, 53, 54, 55, 56 and 57.

[1] = system: Chikungunya Virus (CHIKV) strain LR2006-OPY1 with GFP modification (CHIK 5'LR); assay: Inhibition of Chikungunya virus (CHIKV) production in infected HEK293T cell line (GFP fluorescence); format: cell-based; settings: HEK-293T, infected HEK293T cells; for inhibition at 1 µM: compounds at 1 μM, MOI 0.1, 22 h, values above 100 lowered to 100, read-out: % CHIKV Inhibition Mean (n = 2); for IC50: second round of experiments
Protocol: The ability of the compounds to inhibit viral replication was assessed with an experiment in which infected cells were treated by compounds of formula (I) at 1 μM. As a positive control for inhibition of Chikungunya, Ribavirin was used. Toxicity of the compounds was assessed in parallel.
Human embryonic kidney cells 293T (HEK293T, CRL-11268) were maintained in Dulbecco's modified Eagle's Medium (DMEM, 31966-021, Thermo Fisher Scientific) supplemented with 10% of fetal bovine serum (FBS), penicillin and streptomycin. After removal of the medium, cells were washed with a Ca^2+- and Mg^2+-free salt solution to remove all traces of serum. After aspiration of wash solution, cells were dissociated with 0.25% Trypsin-EDTA solution and incubated 30 s at least in 37° ° C. incubator. Concentration of cell suspension was determined by an automatic cell counter (EVE, NanoEntek) and, if needed, adjusted to 0.33×10^6 cells/mL with DMEM medium supplemented with 10% FBS.
100 μL of the cell suspension were dispatched in a ViewPlate-96 Black (6005182, PerkinElmer) and in a transparent 96-well cell culture plate (655180, Greiner bio-one). After an incubation for 24 h at 37° C. under 5% of CO2, compounds were added at the proper concentration.
An intermediate dilution was prepared with DMSO (D8418, Sigma) at 2 mM in a 96-well V-bottom microplate from the stock solution:
Mix 1 μL of the 50 mM stock library in 25 μL of DMSO.
Mix 2 μL of the 25 mM stock library in 25 μL of DMSO.
An intermediate dilution was prepared with DMSO (D8418, Sigma) at 25 mM in a 96-well V-bottom microplate from the stock solution:
Mix 2 μL of the 50 mM stock library in 2 μL of DMSO.
Serial dilutions were performed in 2 μL of DMSO 13 times to reach 0.0015 mM as follows in table III:
For both screen and determination of IC50 1 μL of each solution was added in a 1 mL Masterblock 96 wells (Greiner bio-one, 780261) containing 1 mL of DMEM medium. As a positive control, 5 μL of a 80 mM Ribavirin solution (R9644, Sigma) is added to 1 mL of DMEM. On the other hand, DMSO is used as a negative control.
[…]. Vector Borne Zoonotic Dis. 2006; 6(4)). This modified virus was used to infect cells at MOI 0.1. […].
Medium was removed after 22 h at 37° ° C. under 5% of CO2 and cells were washed as described above. 60 μL of RIPA buffer (50 mM Tris-HCl pH8, 100 mM NaCl, 1 mM MgCl2, 1% Triton X-100) was added to cells and incubated for at least 20 min before reading fluorescence signal. Pierce 660 nm Protein Assay Reagent (22660, Thermo scientific) was used to normalize fluorescence signal by protein quantity.
A first round of experiments has been performed wherein the results are expressed as inhibition percentage, which is calculated as follows, through the following steps:
1. Fluorescence intensity (FI) 509 nm/Absorbance 660 nm (A660)=A
This ratio allows considering the infection (GFP virus) to the protein amount.
2. A′=A—background noise of non-infected plate,
3. B=Fluorescence intensity (FI)/Absorbance 660 nm (A660) of infected but non treated plates,
4. C=A′/B which is then converted as the percentage of infection after treatment, compared to non-treated sample, and subsequently as the […]. For instance, a value of 100 in Table IV here below means that, after treatment, the signal attributed to GFP fluorescence is abolished, which is correlated to the absence of infection.
This value corresponds to the inhibition's percentage.
The following Table IV encompasses said C′ value for some compounds as calculated above with a mean of 2 experiments, and the corresponding standard deviation.
Some values were originally above 100. In these cases, the value has been lowered to 100. This means that some molecules also have an impact on the viability of the cells. In other words, the A value may be lower than the background noise.
Moreover, for each measure, the test was performed with Ribavirin as control. The value of the inhibition percentage was checked, giving 100%.

DENV-2 strain 16681 = assay: Screening for DENV-2 inhibition using Viral ToxGlo assay in A549 cells; format: cell-based, Dengue 2 virus; settings: Dengue virus, DENV2, A549, 120 h, read-out: % DENV-2 Inhibition Mean (n = 3)
Protocol: Protocol for Screening Antiviral Compounds for DENV-2 Inhibition and Cytotoxicity Using Viral ToxGlo Assay
A549 cells were maintained in Dulbecco's Modified Eagle Medium (DMEM) supplemented with 10% fetal bovine serum, 100 U/ml penicillin and 100 μg/ml streptomycin. For the purposes of the screening assay they were grown to 90% confluency, trypsinized and recovered. The trypsin was neutralised with cell culture media and cells were centrifuged at 150×g for 5 minutes before discarding the supernatant and resuspending cell pellet in assay media (DMEM supplemented with 2% fetal bovine serum and 100 U/ml penicillin and 100 μg/ml streptomycin). The cells were seeded into 96-well white clear-bottomed cell culture plates at a density of 1.0×10^4 cells/well in 50 μl. For the media/background control column assay media only was added. Cell plates were placed in a humid chamber and incubated overnight at 37° C./5% CO2. After overnight incubation cells were checked for confluency and healthy appearance.
Test compounds were prepared at a final concentration of 10 μM, in a maximum DMSO concentration of 1% (final assay concentration maximal 0.1% DMSO) and added to the cell plates in volumes of 10 μl. For cell control and virus control wells the test article solvent only was added. As a positive inhibition control, 7-Deaza-2′-C-methyladenosine was added at 100 μM in 3 wells. Virus (DENV-2 strain 16681) or assay media for cytotoxicity test wells and media/cell control wells was added immediately after test articles at an MOI of 0.5, 40 for 96 well plates respectively. Virus suspension was prepared by thawing DENV-2 frozen stocks and diluting to the required concentration of plaque forming units in assay media.
as §1, with “5 days” for “72 h”, “20” for “20/40”, “96-well” for “384/96 well”, “temperature” for “temperature, protected from light on a plate rocker”, “5” for “20”, “(Envision, PerkinElmer).” for “(Biotek Synergy HTX).”
DENV-2 inhibition was calculated as percentage of cytopathic effect inhibition relative to the virus control and cytotoxicity as percentage of cell survival relative to cell control wells.

Row | Compound | EC50 (RSV A2) [nM] | inhibition at 1 µM [1] [%] | IC50 [1] [nM] | inhibition at 10 µM (DENV-2 strain 16681) [%]
1 | Cc1cc(OC(F)(F)F)ccc1Nc1ccc2cccc(Cl)c2n1 [Compound 1, 8-chloro-N-(2-methyl-4-(trifluoromethoxy)phenyl)quinolin-2-amine] | 3310 | 97 | – | –
2 | CCCc1cc(OC(F)(F)F)ccc1Nc1ccc2cccc(Cl)c2n1 [Compound 6, 8-chloro-N-(2-propyl-4-(trifluoromethoxy)phenyl)quinolin-2-amine] | 1210 | 100 | 1 to 200 | –
3 | Cc1ccc(Oc2ccc(Nc3ccc4ccccc4n3)cc2)cc1 [Compound 28, N-(4-(p-tolyloxy)phenyl)quinolin-2-amine] | 1780 | – | – | –
4 | Cc1cc(Oc2ccccc2F)ccc1Nc1ccc2ccccc2n1 [Compound 38, N-(4-(2-fluorophenoxy)-2-methylphenyl)quinolin-2-amine] | 200 | 98 | 1 to 200 | –
5 | Clc1cccc2ccc(Nc3ccc(OC4CCCC4)cc3C3CC3)nc12 [Compound 44, 8-chloro-N-(4-(cyclopentyloxy)-2-cyclopropylphenyl)quinolin-2-amine] | – | – | 1 to 200 | 94
6 | Fc1ccccc1Oc1ccc(Nc2ccc3ccccc3n2)c(C2CC2)c1 [Compound 46, N-(2-cyclopropyl-4-(2-fluorophenoxy)phenyl)quinolin-2-amine] | – | – | 1 to 200 | 104
7 | Cc1cc(OCc2ccccc2)ccc1Nc1ccc2cccc(Cl)c2n1 [Compound 47, N-(4-(benzyloxy)-2-methylphenyl)-8-chloroquinolin-2-amine] | 420 | – | – | 82
8 | Cc1cc(OC(C)C)c(C2CC2)cc1Nc1ccc2cccc(Cl)c2n1 [Compound 48, 8-chloro-N-(5-cyclopropyl-4-isopropoxy-2-methylphenyl)quinolin-2-amine] | 360 | – | – | –
9 | Cc1c(Nc2ccc3cccc(Cl)c3n2)cccc1OC(C)C [Compound 49, 8-chloro-N-(3-isopropoxy-2-methylphenyl)quinolin-2-amine] | 513 | – | – | –
10 | Cc1c(Nc2ccc3cccc(Cl)c3n2)cccc1OCc1ccccc1 [Compound 50, N-(3-(benzyloxy)-2-methylphenyl)-8-chloroquinolin-2-amine] | 283 | – | – | –
11 | COc1ccc(Oc2ccc(Nc3ccc4ccccc4n3)c(C)c2)cc1 [Compound 51, N-(4-(4-methoxyphenoxy)-2-methylphenyl)quinolin-2-amine] | 412 | – | – | –
12 | COc1ccc(Oc2ccc(Nc3ccc4ccccc4n3)c(C3CC3)c2)c(F)c1 [Compound 52, N-(2-cyclopropyl-4-(2-fluoro-4-methoxyphenoxy)phenyl)quinolin-2-amine] | 344 | – | – | –
13 | Cc1cc(Oc2ccc(O)cc2F)ccc1Nc1ccc2ccccc2n1 [Compound 53, 3-fluoro-4-(3-methyl-4-(quinolin-2-ylamino)phenoxy)phenol] | 196 | – | – | –
14 | Cc1cc(Oc2cccc3ccccc23)ccc1Nc1ccc2cccc(Cl)c2n1 [Compound 54, 8-chloro-N-(2-methyl-4-(naphthalen-1-yloxy)phenyl)quinolin-2-amine] | 94 | – | – | 69
15 | Cc1c(Nc2ccc3cccc(Cl)c3n2)cccc1Oc1ccccc1 [Compound 55, 8-chloro-N-(2-methyl-3-phenoxyphenyl)quinolin-2-amine] | 192 | – | – | –
16 | Cc1cc(Oc2ccccc2)ccc1Nc1ccc2cccc(Cl)c2n1 [Compound 56, 8-chloro-N-(2-methyl-4-phenoxyphenyl)quinolin-2-amine 2,2,2-trifluoroacetate] | 132 | – | – | 76
17 | Cc1cc(Oc2ccc3ccccc3c2)ccc1Nc1ccc2cccc(Cl)c2n1 [Compound 57, 8-chloro-N-(2-methyl-4-(naphthalen-2-yloxy)phenyl)quinolin-2-amine] | 473 | – | – | –

From patent US12084422B2, “Phenyl-n-quinoline derivatives for treating a RNA virus infection” (ABIVAX, priority 2018, dated 2024)
